Experimental data: US20170182047A9, “Post-Translational Regulation of Catalytic Activities of Cytochrome P450 46A1 and Uses Thereof” (The Board of Regents of the University of Texas System, priority 2007, published 2017)
Read-outs that look alike come from different tables or passages of the source.

Tests used:
full-length CYP46A1 = full-length CYP46A1 (Homo sapiens, UniProt Q9Y6A2); test: Inhibition/stimulation of cholesterol hydroxylase activity at fixed 43 μM test compound; format: biochemical; settings: 2.7 μM cholesterol, 43 μM compound; FIG. 4A-4C
full-length CYP46A1, sequence (Q9Y6A2 whole entry): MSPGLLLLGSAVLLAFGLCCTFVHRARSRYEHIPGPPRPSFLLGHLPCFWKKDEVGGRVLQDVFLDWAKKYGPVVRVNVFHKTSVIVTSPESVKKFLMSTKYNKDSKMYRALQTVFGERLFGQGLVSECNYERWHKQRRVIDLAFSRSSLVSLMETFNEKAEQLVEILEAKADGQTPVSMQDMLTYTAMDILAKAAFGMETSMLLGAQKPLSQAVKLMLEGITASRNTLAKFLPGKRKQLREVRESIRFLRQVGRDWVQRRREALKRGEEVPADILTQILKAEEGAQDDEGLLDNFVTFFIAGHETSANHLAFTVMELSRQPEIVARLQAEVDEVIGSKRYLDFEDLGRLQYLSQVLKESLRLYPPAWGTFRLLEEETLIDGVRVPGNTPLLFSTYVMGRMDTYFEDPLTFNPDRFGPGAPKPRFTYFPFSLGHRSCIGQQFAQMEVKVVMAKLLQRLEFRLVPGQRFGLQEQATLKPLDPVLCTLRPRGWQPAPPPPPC

[1] = test system: Cholesterol 24S-Hydroxylase (CYP46A1); test: Brain sterol levels in mice after intraperitoneal voriconazole; format: in vivo, C57/B6 J mice
Method: (§1) The mice were sacrificed by cervical dislocation.
Lipids were extracted from the brain according to Folch with some modifications. Approximately 10 mg of brain tissue was added to 1 ml of homogenization buffer (5 mM EDTA, 50 μg/ml butylated hydroxytoluene in phosphate-buffered saline, pH 7,4) in a clean glass tube, and the tissue was disrupted using a polytron homogeniser. Three milliliters of chloroform:methanol (2:1, v:v) were added to the homogenate and the vials were mixed by vortexing. Samples were centrifuged at 10,000 g for 10 min. The organic phase was transferred to a new vial. The aqueous phase was re-extracted as described previously three more times. The pooled organic phase was dried under stream of argon gas, and chloroform:methanol (2:1, v:v) added to the dried samples to achieve suitable concentration.

CYP46A1 [2] = biological target: T1, CYP46A1 (Homo sapiens, UniProt Q9Y6A2); test: Spectral binding assay of antifungal azoles; parameters: Recombinant full-length human CYPs 46A1 and 27A1 and bovine CYP11A1 were expressed and purified; made in house; settings: 0.3 μM purified P450; read-out: estimated Kd
T1 sequence (Q9Y6A2 whole entry): as above
Method: (§2) Titrations of CYP46A1 were carried out in 50 mM potassium phosphate buffer (KPi), pH 7.2, containing 100 mM NaCl and 0.02% Cymal 6. CYPs 11A1 and 27A1 were in 50 mM KPi without any additives. Antifungal drugs were added from 0.2-5 mM stocks in 50% methanol. The apparent Kd and maximal absorbance change were estimated by non-linear least squares fitting using the quadratic form of the single-site binding equation (9).

CYP11A1 = biological target: T2, CYP11A1 (Bos taurus, UniProt P00189); test: Spectral binding assay of antifungal azoles; parameters: species or system bovine
T2 construct: Recombinant full-length human CYPs 46A1 and 27A1 and bovine CYP11A1 were expressed and purified; made in house
T2 sequence (P00189 40-520): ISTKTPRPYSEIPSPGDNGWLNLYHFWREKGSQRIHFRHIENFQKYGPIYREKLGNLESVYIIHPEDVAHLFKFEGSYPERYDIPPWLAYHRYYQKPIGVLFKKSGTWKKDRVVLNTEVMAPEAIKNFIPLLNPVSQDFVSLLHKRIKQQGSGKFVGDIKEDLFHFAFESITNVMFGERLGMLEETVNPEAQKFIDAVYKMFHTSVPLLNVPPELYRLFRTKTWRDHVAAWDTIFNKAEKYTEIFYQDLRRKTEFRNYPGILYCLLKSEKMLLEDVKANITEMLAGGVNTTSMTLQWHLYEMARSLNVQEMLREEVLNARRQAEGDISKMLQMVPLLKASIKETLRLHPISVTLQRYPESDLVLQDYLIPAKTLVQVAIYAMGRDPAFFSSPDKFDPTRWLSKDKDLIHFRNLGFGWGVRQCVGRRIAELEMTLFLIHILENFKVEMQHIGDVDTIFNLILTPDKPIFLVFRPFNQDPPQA
Method: as §2

[3] = Brain levels of voriconazole; format: in vivo, C57/B6 J mice; settings: after 5 daily intraperitoneal injections (60 mg/kg body weight)
Method: as §1
Voriconazole was determined in serum and brain homogenates after the extraction with chloroform/methanol (2:1, v:v) and ethanol (10%, v/v, final), respectively. Voriconazole extract (100 μL) was then mixed with 200 μL acetonitrile, centrifuged at 10,000 g for 10 min, and 1 μL of the supernatant injected onto a Phenomenex Luna C18 3 μm column (100×2 mm) connected to the Agilent 1100 liquid chromatography-mass spectrometry system with an autosampler and solvent degasser. Gradient elution was with initial 35% B increasing to 100% B in 5 min (A=1% acetonitrile with 25 mM formic acid; B=100% acetonitrile with 25 mM formic acid). A structure analogue (UK115794, Pfizer Ltd) was used as internal standard. Ions were monitored in a positive mode at m/z 350 (voriconazole) and m/z 348 (internal standard).

CYP46A1 [4] = biological target: T1, CYP46A1; test: In vitro IC50 and Ki for CYP46A1-catalysed hydroxylation; format: biochemical; parameters: Recombinant full-length human CYPs 46A1 and 27A1 and bovine CYP11A1 were expressed and purified; made in house; settings: for IC50: 5.4 μM cholesterol
Method: Cholesterol hydroxylation by CYP46A1 was assayed for 20 min at 37° C. in 1 ml of 50 mM KPi, pH 7.2, containing 100 mM NaCl, 0.02% Cymal 6, 40 μg dilauroylglycerol-3-phosphatidylcholine and 2U of catalase. […] The enzymatic reaction was initiated by NADPH (final 1 mM) and terminated by vortexing with 2 ml of CH2Cl2. The organic phase was isolated, evaporated, dissolved in methanol, and subjected to HPLC. […] In addition, the Ki for cholesterol 24-hydroxylation was estimated assuming a model of competitive inhibition.

CYP27A1 = biological target: T3, CYP27A1 (Homo sapiens, UniProt Q02318); test: Spectral binding assay of antifungal azoles; settings: up to 100 μM
T3 construct: Recombinant full-length human CYPs 46A1 and 27A1 and bovine CYP11A1 were expressed and purified; made in house
T3 sequence (Q02318 34-531): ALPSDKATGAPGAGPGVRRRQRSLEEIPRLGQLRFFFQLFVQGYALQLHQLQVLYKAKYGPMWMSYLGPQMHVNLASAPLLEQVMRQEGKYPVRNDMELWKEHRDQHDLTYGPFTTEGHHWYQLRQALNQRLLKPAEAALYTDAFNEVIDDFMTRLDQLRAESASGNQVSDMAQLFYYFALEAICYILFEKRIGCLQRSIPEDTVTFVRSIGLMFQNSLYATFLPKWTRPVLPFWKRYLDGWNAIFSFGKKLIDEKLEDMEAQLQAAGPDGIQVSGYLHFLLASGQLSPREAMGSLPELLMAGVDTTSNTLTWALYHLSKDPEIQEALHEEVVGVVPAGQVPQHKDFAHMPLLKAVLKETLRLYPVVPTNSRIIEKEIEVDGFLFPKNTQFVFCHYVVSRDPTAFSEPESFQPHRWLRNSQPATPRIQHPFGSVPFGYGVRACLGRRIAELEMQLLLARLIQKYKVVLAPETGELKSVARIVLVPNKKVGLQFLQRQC
Method: as §2

[5] = 60 mg/kg i.p. once a day for 5 days

Q: With `C[C@@H](c1ncncc1F)[C@](O)(Cn1cncn1)c1ccc(F)cc1F` [voriconazole] as the molecule, how does the “inhibition of cholesterol hydroxylation (in words)” value (full-length CYP46A1) read?
A: The value was “significant inhibition”.

Q: And the “effect on the levels of 27-hydroxycholesterol in the brain” value [1, 5]?
A: The value was “no effect”.

Q: And the “effect on the levels of cholesterol in the brain” value [1, 5]?
A: Its value is “no effect”.

Q: And the “level of lathosterol in the brain” value ([1]; 60 mg/kg i.p. once a day for 5 days, p<0.05)?
A: Its value is “significantly reduced”.

Q: What about the “reduction in the levels of 24S-hydroxycholesterol in the brain” value ([1]; 60 mg/kg i.p. once a day for 5 days, p=0.03) of the same molecule?
A: Its value is 37%.

Q: What about the “levels of 24S-hydroxycholesterol in the brain” value ([1]; different doses (60 or 75 mg/kg i.p.), six hours after the injection) of the same molecule?
A: Its value is “appeared to reduce the levels of 24S-hydroxycholesterol”.

Q: And the “effect on levels of lathosterol in the brain” value ([1]; single 60 mg/kg i.p., 2 hours)?
A: The value was “no significant effect”.

Q: What about the “effect on levels of total cholesterol in the brain” value ([1]; single 60 mg/kg i.p., 2 hours) of the same molecule?
A: The value was “no significant effect”.

Q: And the “reduction of levels of 24S-hydroxycholesterol in the brain” value ([1]; single 60 mg/kg i.p., 2 hours, not statistically significant (p>0.05))?
A: The value was 20%.

Q: What about the “brain levels of dehydrolanosterol” value ([1]; voriconazole-treated mice (controls 0.14+0.05)) of the same molecule?
A: Its value is 1.9+0.7 ng/mg tissue.

Q: What about the “brain levels of squalene” value ([1]; voriconazole-treated mice (controls 2.2+0.8), p=0.05) of the same molecule?
A: Its value is 1.7+0.6 ng/mg tissue.

Q: What about the “brain levels of lanosterol” value ([1]; voriconazole-treated mice (controls 6.1+2.0), p<0.001) of the same molecule?
A: The value was 27+10 ng/mg tissue.

Q: And the Kd (CYP46A1 [2])?
A: Its Kd is 50 nM.

Q: And the Kd (CYP11A1; 0.3 μM purified P450, read-out: apparent Kd)?
A: Its Kd is 4800 nM.

Q: What about the “binding weaker than that to CYP46A1” value (CYP11A1; CYP11A1 vs CYP46A1) of the same molecule?
A: The value was about 100 fold.

Q: And the “level of voriconazole in the brain” value [3]?
A: Its value is 43+8 μg/g wet weight.

Q: What about the concentration at 5 days ([3]; male, C57/B6 J, mouse, brain, read-out: level of voriconazole in the brain) of the same molecule?
A: The concentration at 5 days was 123 µM.

Q: What about the IC50 (CYP46A1 [4]; read-out: IC50 for cholesterol 24-hydroxylation) of the same molecule?
A: Its IC50 is 22 nM.

Q: And the Ki (CYP46A1 [4]; estimated, competitive inhibition, cholesterol equal to the Km, read-out: Ki for cholesterol 24-hydroxylation)?
A: Its Ki is 11 nM.

Q: And the IC50 (CYP46A1 [4]; read-out: IC50 for 25- and 27-hydroxylations of 24S-hydroxycholesterol)?
A: The IC50 was 47 nM.

Q: What about the spectral response (CYP27A1) of the same molecule?
A: The spectral response was “only a very weak spectral shift was observed”.
